In publication PMC8470058 (Antibiotics, 2021):

Key:
[1] = Voriconazole-related adverse events in Child–Pugh class C patients; assay type: in vivo, human
Description: Forty-three CP-C Asian patients were eligible to participate in the study (Figure 1a). The female-to-male ratio was 4/39. The mean patient age and weight were 49.35 ± 11.65 years (range, 32 to 89 years) and 61.27 ± 12.87 kg (range, 36 to 99 kg). […] The median sampling time of C0 was 5 days (interquartile range (IQR), 3 to 5 days; range, 3 to 11 days).
Researchers conducted the prospective observational study and collected the hospital information and laboratory information at one tertiary hospital from January 2018 to December 2019. […] The administration regimen is mainly under empirical treatment regimens, and the adjustment is generally based on the results of TDM. This study was approved by the Ethics Committee of The Second XiangYa Hospital of Central South University with an approved NO. yxlb-lays-2018012.
Data were extracted from medical records and laboratory information systems, including voriconazole-related information (Cmins, timing, amount, route), demographics, laboratory data, and concomitant medications (antimicrobial agents, CYP2C19 inducers, and inhibitors). The first trough concentration, the repeated measured ones and the last one of patients were recorded as C0, C1, Css, respectively. The Child–Pugh class and MELD score were calculated based on previous criteria.

[2] = cited from earlier work
[3] = CP-C patients in ICU; cited from earlier work
[4] = both, human, in vivo
Method: Researchers conducted the prospective observational study and collected the hospital information and laboratory information at one tertiary hospital from January 2018 to December 2019. […] This study was approved by the Ethics Committee of The Second […] Hospital of Central South University with an approved NO. yxlb-lays-2018012. Venous blood samples (2 mL) were collected into anticoagulant tubes. […] Monitoring continued every 3 days. […] The two-dimensional separation conditions consisted of FRO C18 (100 mm × 3.0 mm, 5 μm, ANAX) and ASTON HD C18 (150 mm × 4.6 mm, 5 μm, ANAX) with the same flow rate 1.0 mL/min. […] This laboratory participated in the annual national external quality assessment scheme. […] The Child-Pugh class and MELD score were calculated based on previous criteria. The Pearson correlation and nonparametric Spearman correlation were used to study the relationship between clinical or laboratory data and Cmins during the therapy, according to the type of variables. […] The Cmins measured after withdrawal or lack of the corresponding key values of clinical or laboratory data were excluded in pairs in the bivariate correlation analysis or in rows in the multiple linear regression. For the regression analysis, the genotype of CYP2C19 was set as a dummy variable.

C[C@@H](c1ncncc1F)[C@](O)(Cn1cncn1)c1ccc(F)cc1F [voriconazole]
Patients with adverse events identified as voriconazole related ([1]; 20 of 43 patients, dizziness, hallucinations, visual disturbance): 46.5%
Median duration from voriconazole initiation to onset of adverse events ([1]; range, 1 to 12 days): 2 days
Oral bioavailability [2]: 91.6%
Change of terminal half-life (t1/2) [3]: increased about five times
Median terminal t1/2 [3]: 60.7 h
Decrease of Cmin in male patients compared to the female [4]: 1651 ng/mL
Decrease of concentration with a one-unit increase in PTA count [4]: 0.035 mg/L
Patients with targeted C0 reaching supratherapeutic levels with no adjusted daily dose [4]: 25.8%
